Assay results: patent US20170056423A1 (Gilead Sciences, Inc., priority 2012, published 2017)
Read-outs that look alike come from different tables or passages of the source.

Tests used:
cytochrome P450 enzymes = conditions: in vitro or in vivo in humans
[1] = in vivo
[2] = test system: UDP-glucuronosyltransferases; assay: UDP-glucuronosyltransferase interaction; assay type: in vitro ADME, human; conditions: in vitro or in vivo in humans
[3] = for thermodynamic stability in solvents: toluene, MTBE, acetone, THF, 2-methyl THF
[4] = Source text: Chemical stability of the hemifumarate form of tenofovir alafenamide was compared with the monofumarate form. […] Conditions evaluated include temperature, relative humidity (RH), and the open or closed state of the container cap.
CYP2D6 = CYP2D6 (Homo sapiens, UniProt P10635); assay: CYP2D6 inhibition; assay type: in vitro ADME
Chain of CYP2D6 (P10635 whole entry): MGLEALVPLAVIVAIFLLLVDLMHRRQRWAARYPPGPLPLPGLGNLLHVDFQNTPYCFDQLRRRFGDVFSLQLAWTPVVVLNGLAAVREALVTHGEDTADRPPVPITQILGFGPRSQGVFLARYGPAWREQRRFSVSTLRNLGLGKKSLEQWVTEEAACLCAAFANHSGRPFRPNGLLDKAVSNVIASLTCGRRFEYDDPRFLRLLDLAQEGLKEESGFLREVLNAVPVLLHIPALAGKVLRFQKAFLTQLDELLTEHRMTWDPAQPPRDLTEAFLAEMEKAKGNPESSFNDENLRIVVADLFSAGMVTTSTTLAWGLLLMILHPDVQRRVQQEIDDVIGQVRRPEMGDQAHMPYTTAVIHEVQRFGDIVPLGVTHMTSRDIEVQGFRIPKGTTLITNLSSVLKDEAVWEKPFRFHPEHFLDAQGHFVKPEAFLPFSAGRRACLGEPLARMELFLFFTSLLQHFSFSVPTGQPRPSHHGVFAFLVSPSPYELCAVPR

Pgp = target: T1, Pgp (Homo sapiens, UniProt P08183); assay: Pgp inhibition assay, calcein AM accumulation in MDCKII-MDR1 cells; assay type: cell-based
T1 construct: expressed in transfected cells; host or cells: MDCKII (Madin-Darby canine kidney) cells, MDCKII-MDR1
Description: (§1) Pgp and BCRP inhibition assays in transfected Madin-Darby canine kidney (MDCKII) cells: Inhibition of Pgp-mediated transport was studied using the Pgp substrate calcein AM and MDCKII cells transfected with the human MDR1 (ABCB1) gene (encoding Pgp). Similarly, inhibition of BCRP-mediated transport was studied using the BCRP substrate Hoechst 33342 and MDCKII cells transfected with the human ABCG2 gene (encoding BCRP). Briefly, MDCKII cells were seeded in 96-well black cell culture plates with clear bottoms at a density of 5×10^4 cells/well and grown to confluence overnight. Test compounds were diluted in cell culture medium containing 10 μM Hoechst 33342 and incubated for 3 hours with MDCKII-BCRP and nontransfected cells. Following removal of media containing Hoechst 33342 and test compound, cells were washed twice with warm medium and lysed at room temperature for 5-10 minutes in a buffer containing 20 mM Tris-HCl pH 9.0 and 0.4% Triton X-100. Wells were analyzed for Hoechst 33342 fluorescence at an excitation of 353 nm and an emission of 460 nm. […]

CYP2C8 = CYP2C8 (Homo sapiens, UniProt P10632); assay: CYP2C8 inhibition; assay type: in vitro ADME
Chain of CYP2C8 (P10632 whole entry): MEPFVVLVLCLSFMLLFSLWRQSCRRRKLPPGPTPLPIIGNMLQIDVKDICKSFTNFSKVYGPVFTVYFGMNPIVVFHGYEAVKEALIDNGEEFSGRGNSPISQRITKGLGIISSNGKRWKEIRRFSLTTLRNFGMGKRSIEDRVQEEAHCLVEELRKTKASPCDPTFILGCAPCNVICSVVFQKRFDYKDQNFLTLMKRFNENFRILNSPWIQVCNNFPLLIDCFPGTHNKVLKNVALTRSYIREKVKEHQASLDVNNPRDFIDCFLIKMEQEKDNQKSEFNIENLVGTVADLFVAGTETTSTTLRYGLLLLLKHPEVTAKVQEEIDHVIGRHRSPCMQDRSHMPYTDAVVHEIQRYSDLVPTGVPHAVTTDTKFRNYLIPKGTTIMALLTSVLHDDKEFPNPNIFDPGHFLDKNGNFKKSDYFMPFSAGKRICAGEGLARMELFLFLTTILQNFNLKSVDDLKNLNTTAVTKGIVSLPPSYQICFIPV

BCRP [5] = target: T2, BCRP (Homo sapiens, UniProt Q9UNQ0); assay: BCRP substrate assay, bidirectional permeability in MDCKII-BCRP cells; assay type: in vitro ADME; conditions: 10 μM, MDCKII-BCRP vs MDCKII-WT, ± Ko134
T2 construct: expressed in transfected cells; host or cells: MDCKII (Madin-Darby canine kidney) cells, MDCKII-ABCG2 / MDCKII-BCRP
T2 sequence (Q9UNQ0 whole entry): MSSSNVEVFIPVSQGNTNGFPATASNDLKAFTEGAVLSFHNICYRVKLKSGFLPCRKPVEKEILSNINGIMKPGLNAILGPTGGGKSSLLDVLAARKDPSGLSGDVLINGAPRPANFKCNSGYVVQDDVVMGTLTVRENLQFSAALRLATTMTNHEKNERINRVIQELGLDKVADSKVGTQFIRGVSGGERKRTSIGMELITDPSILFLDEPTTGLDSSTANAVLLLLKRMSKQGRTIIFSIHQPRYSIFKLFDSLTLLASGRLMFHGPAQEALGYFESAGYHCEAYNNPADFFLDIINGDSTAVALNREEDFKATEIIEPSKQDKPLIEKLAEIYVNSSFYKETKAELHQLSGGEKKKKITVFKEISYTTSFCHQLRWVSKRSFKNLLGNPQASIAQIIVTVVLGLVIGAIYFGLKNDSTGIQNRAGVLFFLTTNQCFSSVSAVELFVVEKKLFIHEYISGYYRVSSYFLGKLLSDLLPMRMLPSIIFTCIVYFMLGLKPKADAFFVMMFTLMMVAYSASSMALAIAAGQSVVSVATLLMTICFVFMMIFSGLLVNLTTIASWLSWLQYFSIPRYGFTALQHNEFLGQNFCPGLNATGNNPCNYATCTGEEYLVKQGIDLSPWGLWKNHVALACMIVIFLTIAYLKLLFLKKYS
Description: (§2) Pgp and BCRP substrate assays in transfected MDCKII cells: MDCKII cells were grown to confluence over 4-6 days on 24-well PET transwell plates (BD Biosciences). The same buffers were used in the donor and receiver wells as described above for caco-2 studies. Experiments were conducted as described above for caco-2 transepithelial transport studies and samples analyzed by LC/MS/MS. Similar quality control and acceptance criteria were used as those described above for caco-2 studies. TEER values and the permeability of lucifer yellow, atenolol, and propranolol were determined to meet acceptance criteria for each batch of assay plates. Efflux ratios were determined to be at least 3-fold higher in transfected versus nontransfected monolayers for the model Pgp substrate vinblastine and BCRP substrate prazosin.
(§3) Data analysis: The 50% inhibition constants (IC50) values for transporters in the fluorescent accumulation studies done in MDCKII cells, defined as the test article concentration needed to inhibit the maximal transporter specific transport by 50%, were calculated using nonlinear curve fitting of inhibition versus concentration to a sigmoidal curve with a variable Hill coefficient using GraphPad Prism 5 (GraphPad Software Inc., San Diego, Calif.). […]

CYP2C9 = CYP2C9 (Homo sapiens, UniProt P11712); assay: CYP2C9 inhibition; assay type: in vitro ADME
Chain of CYP2C9 (P11712 whole entry): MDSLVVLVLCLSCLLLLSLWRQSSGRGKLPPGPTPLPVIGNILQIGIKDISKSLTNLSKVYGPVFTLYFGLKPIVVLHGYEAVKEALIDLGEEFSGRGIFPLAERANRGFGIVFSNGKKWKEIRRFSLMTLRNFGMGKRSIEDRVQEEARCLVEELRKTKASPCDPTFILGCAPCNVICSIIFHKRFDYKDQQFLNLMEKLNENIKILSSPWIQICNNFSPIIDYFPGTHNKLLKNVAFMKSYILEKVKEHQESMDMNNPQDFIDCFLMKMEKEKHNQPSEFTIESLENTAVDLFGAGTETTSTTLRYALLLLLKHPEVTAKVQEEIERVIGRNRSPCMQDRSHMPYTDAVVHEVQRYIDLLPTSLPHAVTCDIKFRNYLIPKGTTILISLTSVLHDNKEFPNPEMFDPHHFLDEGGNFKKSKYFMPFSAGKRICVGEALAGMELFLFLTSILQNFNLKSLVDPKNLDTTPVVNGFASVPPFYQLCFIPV

[6] = target: T3, Pgp (multidrug resistance protein 1; MDR1) (Homo sapiens, UniProt P08183); assay: Pgp substrate assay, bidirectional permeability in MDCKII-MDR1 cells; assay type: in vitro ADME; conditions: 10 μM, MDCKII-MDR1 vs MDCKII-WT, ± CSA
T3 construct: expressed in transfected cells; host or cells: MDCKII (Madin-Darby canine kidney) cells, MDCKII-MDR1
Description: as §2, §3

CYP1A2 = CYP1A2 (Homo sapiens, UniProt P05177); assay: CYP1A2 inhibition; assay type: in vitro ADME
Chain of CYP1A2 (P05177 whole entry): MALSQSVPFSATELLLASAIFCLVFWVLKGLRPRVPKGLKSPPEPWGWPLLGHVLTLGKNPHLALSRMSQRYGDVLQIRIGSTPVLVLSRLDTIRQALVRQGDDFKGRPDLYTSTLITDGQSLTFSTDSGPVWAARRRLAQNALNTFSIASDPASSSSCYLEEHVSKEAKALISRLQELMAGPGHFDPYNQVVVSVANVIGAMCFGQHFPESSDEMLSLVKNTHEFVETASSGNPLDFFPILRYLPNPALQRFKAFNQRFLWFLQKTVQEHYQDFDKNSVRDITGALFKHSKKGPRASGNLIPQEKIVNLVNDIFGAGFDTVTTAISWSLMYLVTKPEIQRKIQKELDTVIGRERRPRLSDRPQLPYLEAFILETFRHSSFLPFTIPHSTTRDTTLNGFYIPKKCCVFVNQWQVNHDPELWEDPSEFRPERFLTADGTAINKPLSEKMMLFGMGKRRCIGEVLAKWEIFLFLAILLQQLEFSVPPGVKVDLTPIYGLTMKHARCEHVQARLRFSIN

[7] = test system: transporters including P-glycoprotein, MRP1, and MRP2; assay: permeability assays for transporter interaction; assay type: in vitro ADME
CYP2B6 = CYP2B6 (Homo sapiens, UniProt P20813); assay: CYP2B6 inhibition; assay type: in vitro ADME; conditions: similar potency to ritonavir
Chain of CYP2B6 (P20813 whole entry): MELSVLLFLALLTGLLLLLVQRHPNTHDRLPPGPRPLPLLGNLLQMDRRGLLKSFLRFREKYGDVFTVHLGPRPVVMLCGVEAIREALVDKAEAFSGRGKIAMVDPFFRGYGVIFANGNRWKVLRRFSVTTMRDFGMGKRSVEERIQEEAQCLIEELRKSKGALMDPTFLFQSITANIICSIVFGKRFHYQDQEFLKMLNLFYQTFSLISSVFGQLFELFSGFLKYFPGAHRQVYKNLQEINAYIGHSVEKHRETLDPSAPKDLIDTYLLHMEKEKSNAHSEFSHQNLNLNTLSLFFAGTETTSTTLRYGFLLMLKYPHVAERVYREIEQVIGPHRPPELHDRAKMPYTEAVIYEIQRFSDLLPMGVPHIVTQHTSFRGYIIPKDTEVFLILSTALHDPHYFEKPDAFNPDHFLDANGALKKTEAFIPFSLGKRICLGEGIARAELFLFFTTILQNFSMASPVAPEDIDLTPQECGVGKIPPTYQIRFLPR

[8] = target: uridine glucuronosyltransferase 1A1 (Homo sapiens, UniProt P22309); assay: UGT1A1 inhibition by cobicistat; assay type: in vitro ADME
Chain of uridine glucuronosyltransferase 1A1 (P22309 26-533): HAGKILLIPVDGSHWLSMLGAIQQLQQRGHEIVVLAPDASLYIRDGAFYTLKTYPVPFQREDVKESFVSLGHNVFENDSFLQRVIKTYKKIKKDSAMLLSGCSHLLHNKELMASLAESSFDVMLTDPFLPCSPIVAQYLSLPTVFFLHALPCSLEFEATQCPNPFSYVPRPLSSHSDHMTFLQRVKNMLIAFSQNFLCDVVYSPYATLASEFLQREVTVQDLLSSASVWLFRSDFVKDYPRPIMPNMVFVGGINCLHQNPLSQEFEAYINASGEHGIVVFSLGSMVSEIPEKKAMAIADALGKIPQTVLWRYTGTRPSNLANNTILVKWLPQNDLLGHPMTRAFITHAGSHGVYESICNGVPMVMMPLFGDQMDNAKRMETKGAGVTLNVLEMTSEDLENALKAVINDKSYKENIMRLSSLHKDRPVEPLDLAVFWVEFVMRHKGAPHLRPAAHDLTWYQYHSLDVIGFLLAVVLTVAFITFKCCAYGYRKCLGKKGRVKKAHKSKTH

CYP2C19 = CYP2C19 (Homo sapiens, UniProt P33261); assay: CYP2C19 inhibition; assay type: in vitro ADME
Chain of CYP2C19 (P33261 whole entry): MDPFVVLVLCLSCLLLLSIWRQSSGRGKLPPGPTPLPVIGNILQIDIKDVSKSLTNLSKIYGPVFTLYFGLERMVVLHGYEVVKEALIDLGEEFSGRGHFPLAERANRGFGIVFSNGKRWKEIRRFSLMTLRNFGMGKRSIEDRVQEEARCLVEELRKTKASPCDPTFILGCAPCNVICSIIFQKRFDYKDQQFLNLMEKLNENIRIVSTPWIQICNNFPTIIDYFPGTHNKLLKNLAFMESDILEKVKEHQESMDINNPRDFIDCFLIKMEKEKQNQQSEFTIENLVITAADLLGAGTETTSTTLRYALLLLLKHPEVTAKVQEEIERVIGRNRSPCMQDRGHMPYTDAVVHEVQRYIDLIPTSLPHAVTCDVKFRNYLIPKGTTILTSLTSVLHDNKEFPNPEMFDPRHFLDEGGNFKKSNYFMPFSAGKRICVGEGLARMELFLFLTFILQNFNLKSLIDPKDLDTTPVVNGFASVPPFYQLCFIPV

[9] = test system: cytochrome P450, UGT1A1, or P-glycoprotein; assay: xenobiotic receptor transactivation and human hepatocyte induction studies; assay type: in vitro ADME; conditions: at up to 30 μM
caco-2 cell monolayers = assay: bidirectional permeability of HIV protease inhibitors and GS-7340 through caco-2 monolayers; assay type: in vitro ADME; conditions: COBI 90 μM, GS-7340 10 μM, over 2 hours
BCRP [10] = target: T2, BCRP; assay: BCRP inhibition assay, Hoechst 33342 accumulation in MDCKII-ABCG2 cells; assay type: cell-based; conditions: Hoechst 33342, MDCKII-ABCG2 cells
Description: as §1

[11] = 25° C., relative humidity of 90%
Description: DVS analysis was conducted using 4.951 mg of tenofovir alafenamide hemifumarate. The material was kept at 25° C. in nitrogen at humidities ranging from 10% to 90% relative humidity: each step was equilibrated for 120 minutes.

[12] = 40° C./75% RH Cap Closed, 0 weeks
[13] = 40° C./75% RH Cap Closed, 1 week
[14] = 40° C./75% RH Cap Closed, 2 weeks
[15] = 40° C./75% RH Cap Closed, 4 weeks
[16] = 40° C./75% RH Cap Closed, 8 weeks
[17] = 40° C./75% RH Cap Open, 0 weeks
[18] = 40° C./75% RH Cap Open, 2 weeks
[19] = 40° C./75% RH Cap Open, 4 weeks
[20] = 40° C./75% RH Cap Open, 8 weeks

Compound | thermodynamic stability in solvents ([3]; ACN, ethyl acetate) | % TA Area Normalized [4, 12] | % Total Deg. Products [4, 12] | % TA Area Normalized [4, 13] | % Total Deg. Products [4, 13] | % TA Area Normalized [4, 14] | % Total Deg. Products [4, 14] | % TA Area Normalized [4, 15] | % Total Deg. Products [4, 15] | % TA Area Normalized [4, 16] | % Total Deg. Products [4, 16] | % TA Area Normalized [4, 17] | % Total Deg. Products [4, 17] | % TA Area Normalized ([4]; 40° C./75% RH Cap Open, 1 week) | % Total Deg. Products ([4]; 40° C./75% RH Cap Open, 1 week) | % TA Area Normalized [4, 18] | % Total Deg. Products [4, 18] | % TA Area Normalized [4, 19] | % Total Deg. Products [4, 19] | % TA Area Normalized [4, 20] | also measured
C[C@H](Cn1cnc2c(N)ncnc21)OCP(=O)(O)O [tenofovir, 9-R-[(2-phosphonomethoxy)propyl]adenine] |  |  |  |  |  |  |  |  |  |  |  |  |  |  |  |  |  |  |  |  | interaction with human cytochrome P450 enzymes as substrate, inhibitor, or inducer (cytochrome P450 enzymes): does not interact significantly; systemic exposure equivalent, fold higher than a dose of tenofovir alone [1]: 3 to 4 fold; interaction with UDP-glucuronosyltransferases as substrate, inhibitor, or inducer [2]: does not interact significantly
tenofovir alafenamide monofumarate [Monofumarate form] | not thermodynamically stable | 97.1% | 0.69% | 97.0% | 0.87% | 96.6% | 1.18% | 96.4% | 1.49% | 95.4% | 2.36% | 97.1% | 0.69% | 96.9% | 0.90% | 96.6% | 1.10% | 96.2% | 1.67% | 95.0% | form conversion when suspended in solvent ([3]; ACN, ethyl acetate, MTBE, and acetone): partially converts to the hemifumarate form; form conversion when suspended in solvent ([3]; THF and 2-methyl THF): fully converts to the hemifumarate form; % Total Deg. Products [4, 20]: 2.74%; % TA Area Normalized ([4]; 70° C. Cap Closed, 0 weeks): 97.1%; % Total Deg. Products ([4]; 70° C. Cap Closed, 0 weeks): 0.69%; % TA Area Normalized ([4]; 70° C. Cap Closed, 2 weeks): 96.2%; % Total Deg. Products ([4]; 70° C. Cap Closed, 2 weeks): 1.83%; % TA Area Normalized ([4]; 70° C. Cap Closed, 4 weeks): 93.3%; % Total Deg. Products ([4]; 70° C. Cap Closed, 4 weeks): 4.78%
CC(C)c1nc(CN(C)C(=O)N[C@@H](CCN2CCOCC2)C(=O)N[C@H](CC[C@H](Cc2ccccc2)NC(=O)OCc2cncs2)Cc2ccccc2)cs1 [cobicistat, 1,3-thiazol-5-ylmethyl (2R,5R)-(5-{[(2S)-2-[(methyl{[2-(propan-2-yl)-1,3-thiazol-4-yl]methyl}carbamoyl)amino]]-4-(morpholin-4-yl)butanamido}-1,6-diphenylhexan-2-yl)carbamate] |  |  |  |  |  |  |  |  |  |  |  |  |  |  |  |  |  |  |  |  | inhibition of CYP2D6 (CYP2D6): weak inhibitor; IC50 (Pgp): 36 ± 10 µM; inhibition of CYP2C8 (CYP2C8): does not appreciably inhibit; substrate for BCRP (BCRP [5]): substrate; inhibition of CYP2C9 (CYP2C9): does not appreciably inhibit; substrate for Pgp [6]: substrate; inhibition of CYP1A2 (CYP1A2): does not appreciably inhibit; substrate or inhibitor of transporters [7]: not a strong substrate or inhibitor; inhibition of CYP2B6 (CYP2B6): moderate inhibitor; inhibition of uridine glucuronosyltransferase 1A1 [8]: does not appreciably inhibit; inhibition of CYP2C19 (CYP2C19): does not appreciably inhibit; potential as inducer of cytochrome P450, UGT1A1, or P-glycoprotein [9]: no/weak potential as an inducer; effect on A-B flux of GS-7340 (caco-2 cell monolayers): increased the A-B flux; effect on B-A flux of GS-7340 (caco-2 cell monolayers): reducing B-A flux; IC50 (BCRP [10]): 59 ± 28 µM
tenofovir alafenamide hemifumarate | thermodynamically stable in most solvents | 98.4% | 0.05% | 98.4% | 0.14% | 98.5% | 0.14% | 98.4% | 0.25% | 98.0% | 0.49% | 98.4% | 0.05% | 98.5% | 0.15% | 98.5% | 0.14% | 98.4% | 0.26% | 98.1% | water absorbed [11]: 0.65%; % Total Deg. Products [4, 20]: 0.50%; % TA Area Normalized ([4]; 70° C. Cap Closed, 0 weeks): 98.4%; % Total Deg. Products ([4]; 70° C. Cap Closed, 0 weeks): 0.05%; % TA Area Normalized ([4]; 70° C. Cap Closed, 2 weeks): 98.5%; % Total Deg. Products ([4]; 70° C. Cap Closed, 2 weeks): 0.22%; % TA Area Normalized ([4]; 70° C. Cap Closed, 4 weeks): 98.4%; % Total Deg. Products ([4]; 70° C. Cap Closed, 4 weeks): 0.33%
